Columns and labels:
[1] = human
[2] = human; remark: listed apart in the source
[3] = human; remark: listed apart in the source
[4] = human, serum, 4383 h
[5] = Presence of at least one case with successful reintroduction. [column 'REINT' in source]; conditions: human
[6] = human; remark: listed apart in the source
[7] = Highest frequency of moderate liver toxicity observed during clinical trials, expressed as a percentage. [column '% BIOL' in source]; conditions: human
[8] = human; remark: listed apart in the source
[9] = human; remark: listed apart in the source
[10] = human; remark: listed apart in the source
[11] = Highest frequency of acute liver toxicity observed during clinical trials, expressed as a percentage. [column '% AIGUE' in source]; conditions: human
[12] = human, serum
[13] = human; remark: listed apart in the source
[14] = human; remark: listed apart in the source
[15] = Proposed mechanism(s) of liver damage. [column 'MEC' in source]; conditions: human
[16] = human, serum; remark: listed apart in the source
[17] = Times to onset, minimal and maximal, observed in the indexed observations. [column 'DELAI' in source]; conditions: human
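For Hepatotoxicity (association with vascular disease) in this document: count of indexed literature references reporting vascular liver injury in humans, e.g. peliosis hepatitis, hepatic veno-occlusive disease or Budd-Chiari syndrome.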
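For Hepatotoxicity (benign tumour) in this document: value is a count of indexed literature references citing a benign tumour confirmed by histopathology.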
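For Hepatotoxicity (choleostasis) in this document: human cholestatic liver injury, shown by histopathology or by peak ALT or AST elevation over alkaline phosphatase ratio below 2, value counts indexed literature reports.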
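For Hepatotoxicity (chronic liver disease) in this document: chronic liver injury confirmed by histopathology or persistently raised serum aminotransferase activity beyond 6 months, value given as the count of indexed literature references.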
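For Hepatotoxicity (cirrhosis) in this document: value is a count of indexed literature references reporting cirrhosis confirmed by histopathology.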
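For Hepatotoxicity (cytolytic) in this document: human cytolytic liver injury, shown by histopathology or by a ratio above 5 of peak ALT or AST elevation to alkaline phosphatase elevation, value counts indexed references.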
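For Hepatotoxicity (granulomatous hepatitis) in this document: value is a count of indexed literature references reporting granulomatous liver disease confirmed by histopathology.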
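For Hepatotoxicity (malignant tumour) in this document: malignant tumour confirmed by histopathology, value gives the count of indexed literature references reporting it.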
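For Hepatotoxicity (severe hepatitis) in this document: human clinical data: severe hepatitis, meaning potentially life-threatening liver failure or clinically observed cases, the value counts how many indexed literature references report it.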
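For Hepatotoxicity (steatosis) in this document: steatosis confirmed by histopathology, value is the count of indexed references.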

Compound | Hepatotoxicity (steatosis) [1] | Hepatotoxicity (malignant tumour) [3] | Hepatotoxicity (chronic liver disease) [4] | Hepatotoxicity (successful reintroduction) [5] | Hepatotoxicity (benign tumour) [9] | Hepatotoxicity (association with vascular disease) [10] | Hepatotoxicity (acute) [12] | Hepatotoxicity (cirrhosis) [14] | Hepatotoxicity (moderate) [16] | Hepatotoxicity (time to onset) [17] | Hepatotoxicity (severe hepatitis) [2] | Hepatotoxicity (cytolytic) [6] | Hepatotoxicity (moderate) [7] | Hepatotoxicity (granulomatous hepatitis) [8] | Hepatotoxicity (acute) [11] | Hepatotoxicity (choleostasis) [13] | Hepatotoxicity (mechanism) [15] | also measured
CCN(CC)Cc1cc(Nc2ccnc3cc(Cl)ccc23)ccc1O.Cl | 0 | 0 | 0 | yes | 0 | 0 | 18 | 1 | 2 | 1 week - 1 year |  |  |  |  |  |  |  | Hepatotoxicity (severe hepatitis) ([2]; Liver): 8; Hepatotoxicity (cytolytic) ([6]; Liver): 11; Hepatotoxicity (moderate) ([7]; Liver): 0%; Hepatotoxicity (granulomatous hepatitis) ([8]; Liver): 0; Hepatotoxicity (acute) ([11]; Liver): 6.7%; Hepatotoxicity (choleostasis) ([13]; Liver): 4; Hepatotoxicity (mechanism) ([15]; Liver): Allergic, Dose-dependant, Reactive metabolite
CCc1nc(N)nc(N)c1-c1ccc(Cl)cc1.COc1ncnc(NS(=O)(=O)c2ccc(N)cc2)c1OC | 0 | 0 | 0 | yes | 0 | 0 | 14 | 0 | 11 | 1 day - 3 months | 3 | 5 | 22.5% | 2 | 23.5% | 4 | Allergic | 
CCOC(N)=O | 0 | 0 | 0 | yes | 0 | 3 | 5 | 1 | 0 | 1 year - 2 years | 4 | 5 | 0% | 0 | 0% | 1 | Dose-dependant | 
CCCC(=O)Nc1ccc(OCC(O)CNC(C)C)c(C(C)=O)c1 (stereo not given) [ACEBUTOLOL] | 0 | 0 | 0 | yes | 0 | 0 |  | 0 | 0 | 1 day - 1 month |  | 1 |  | 0 |  | 1 | Allergic | Hepatotoxicity (severe hepatitis) ([2]; Liver): 0; Hepatotoxicity (moderate) ([7]; Liver): 0%; Hepatotoxicity (acute) ([11]; Liver): 0%
CC[C@@]1(O)C[C@H](O[C@H]2C[C@H](N(C)C)[C@H](O[C@H]3C[C@H](O)[C@H](O[C@H]4CCC(=O)[C@H](C)O4)[C@H](C)O3)[C@H](C)O2)c2c(cc3c(c2O)C(=O)c2c(O)cccc2C3=O)[C@H]1C(=O)OC [ACLARUBICIN] | 0 | 0 | 0 | yes | 0 | 0 | 0 | 0 | 8 |  | 1 | 0 | 26.7% | 0 | 0% | 0 | Dose-dependant | 
COC(=O)C1=C(C)NC(C)=C(C(=O)OC)C1c1ccccc1[N+](=O)[O-] [NIFEDIPINE] | 3 | 0 | 0 | yes | 0 |  |  | 0 | 6 | 2 days - 6 years | 2 | 5 | 12% | 0 | 4% | 7 | Allergic | 
Nc1nc2ccc(OC(F)(F)F)cc2s1 [RILUZOLE] | 1 | 0 | 0 | yes | 0 |  | 5 | 0 | 5 | 15 days - 9 months | 0 | 5 | 17% | 0 | 3.8% | 0 | Dose-dependant | 
Clc1ccc2nsnc2c1NC1=NCCN1 [TIZANIDINE] | 1 | 0 | 0 | yes | 0 | 0 |  | 0 | 2 | 6 days - 3.5 months |  |  |  |  |  |  |  | Hepatotoxicity (severe hepatitis) ([2]; Liver): 2; Hepatotoxicity (cytolytic) ([6]; Liver): 1; Hepatotoxicity (moderate) ([7]; Liver): 0%; Hepatotoxicity (granulomatous hepatitis) ([8]; Liver): 0; Hepatotoxicity (choleostasis) ([13]; Liver): 0; Hepatotoxicity (mechanism) ([15]; Liver): Allergic
CN(C)C/C=C(/c1ccc(Br)cc1)c1cccnc1 [ZIMELDINE] | 0 | 0 | 0 | yes | 0 | 0 | 4 | 0 | 9 | 2 weeks - 2 months | 0 | 3 | 20.5% | 2 | 6.6% | 3 |  | 
ENOXAPARIN | 0 | 0 | 0 | yes | 0 | 0 | 0 | 0 | 8 | 12 hours - 2 weeks | 0 | 0 | 36% | 0 | 0% | 0 |  | 
FILGRASTIM | 0 | 0 | 0 | yes | 0 | 0 | 2 | 0 | 7 | 3 days - 8 days | 0 | 2 | 75% | 0 | 0% | 1 |  | 
INSULIN HUMAN | 0 | 0 | 0 | yes | 0 | 0 | 1 | 0 | 5 | 6 days - 1 month | 0 | 1 | 0% | 0 | 0% | 0 |  | 
PEGVISOMANT | 0 | 0 | 0 | yes | 0 | 0 | 2 | 0 | 0 | 4 weeks - 8 weeks | 0 | 2 | 0% | 0 | 1.3% | 0 |  | 
PENTOSAN POLYSULFATE SODIUM | 0 | 0 | 0 | yes | 0 | 0 | 1 | 0 | 5 | 1 week - 2 weeks | 0 | 1 | 75% | 0 | 0% | 0 |  | 
